Assay results from article PMC7188855, “Nucleic acid recognition and antiviral activity of 1,4-substituted terphenyl compounds mimicking all faces of the HIV-1 Rev protein positively-charged α-helix” (Scientific Reports, 2020).
Like-named read-outs stand apart in the source and are kept apart here.

Key:
[1] = molecular target: RRE subdomain IIB RNA hairpin IIBh; experiment: Fluorescence intensity binding to fluorescein-labelled IIBh hairpin; design: species or system HIV-1; conditions: for IIB-DNA spec., Kd(IIBh)/Kd(IIBh+LTRd) / IIB-tRNA spec., Kd(IIBh)/Kd(IIBh+tRNA): low ionic strength, 10 mM sodium phosphate pH 6.6, uses Kd1
Text: We next determined whether the terphenyl molecules blocked the interaction between Rev34–50 and subdomain IIB by binding to the RNA and, if so, whether they recognized subdomain IIB in a manner similar to the Rev34–50 α-helix. We first evaluated subdomain IIB association by measuring changes in the fluorescence intensity of a IIBh RNA hairpin construct containing a fluorescein probe attached to unpaired loop IIB residue U23 (Fig. 1D)[21],[22]. […] However, there were significant differences among the compounds.
These experiments measured association to IIBh-23fl or TARh-8fl RNA molecules labelled with fluorescein at extrahelical loop nucleotides U23 and U8, respectively (Fig. 1D), and were carried out under two different ionic conditions in a Victor X5 plate reader, using excitation and emission wavelengths of 485 and 520 nm, respectively. We also attempted to measure association to an alternative IIBh hairpin containing 2-aminopurine instead of adenine at unpaired loop IIB residue A19[21], but all terphenyls fluoresced at the excitation wavelength of this fluorophore. IIBh-23fl or TARh-8fl (at 100 nM concentration) was equilibrated for 5 minutes after each ligand addition in a buffer containing either 10 mM sodium phosphate pH 6.6 and 0.1 mM EDTA or 10 mM HEPES pH 7.5, 200 mM KCl and 2 mM MgCl2. In addition to the TARh specificity control, the RNA and DNA specificity of the IIBh interactions was assessed by duplicating the experiments in the presence of a 10-fold molar excess (1 μM) of either tRNA^Lys or DNA duplex LTRd. The equilibrium dissociation constants Kd were determined by fitting the fluorescence intensity curves with DYNAFIT[40]. We used one-site, two independent-sites and two interacting-sites binding models for all curves, and the best model was automatically selected by model discrimination analysis, except where indicated. The final graphs were plotted with Prism. All fluorescence intensity experiments were performed at least two times for each compound and condition.

RRE subdomain IIB (IIBh) = experiment: Isothermal titration calorimetry with IIBh; format: binding, HIV-1; conditions: 25 °C; 10 mM sodium phosphate pH 7.4, 0.1 mM EDTA; read-out: equilibrium dissociation constant, RRE subdomain IIB (ITC)
Protocol: (§1) These experiments were performed at 25 °C in MicroCal PEAQ-ITC or Nano-ITC microcalorimeters, and the data was subsequently analysed with MicroCal or Nanoanalyze software, respectively. All species were dissolved in aqueous solutions containing 10 mM sodium phosphate (pH 7.4 or 8.2) and 0.1 mM EDTA. For the IIBh:1a interaction the pH was 7.4, and 10 or 20 μM solutions of IIBh in the sample cell were titrated with 19 injections of 350 or 500 μM solutions of 1a. […]. […] For the DNAd:1a interaction, the pH was 8.2, and 800 or 900 μM solutions of 1a were titrated into 20 μM solutions of DNAd duplex in the sample cell with 19 injections of 2 µL. In both cases, the titration experiments were repeated three times, and the resulting association curves were fitted using a model with a single set of binding sites.

DNA duplex DNAd = experiment: Isothermal titration calorimetry with DNAd duplex; format: binding; conditions: 25 °C, 10 mM sodium phosphate pH 8.2, 0.1 mM EDTA, read-out: equilibrium dissociation constant, related DNA duplex (ITC)
Protocol: as §1

[2] = system: HIV-1 reverse transcription; experiment: qPCR quantification of early and late HIV-1 reverse transcripts in MT-2 cells; format: cell-based; conditions: MT-2 cells infected with NL4.3 for 5 hours
Protocol: MT-2 cells were pre-treated with two different concentrations of terphenyl molecules 1a, 1d or 3c, selected on the basis of the observed RRE-Rev IC50 and cellular EC50 values, and infected with NL4.3 wild-type HIV-1 for 5 hours. Total genomic DNA was isolated with a QIAamp DNA blood mini kit (Qiagen) and quantified by spectrophotometry. Early and late viral DNAs were quantified by qPCR as previously described. qPCR was performed in triplicate in a StepOne Real-Time PCR system using standard cycling conditions. Serial dilutions of genomic DNA from the 8E5 cell line, which contain a single integrated copy of HIV-1[43], were used as standard curve. The CCR5 gene was used as an endogenous control.

[3] = system: RRE-Rev system (unspliced, single-spliced, multiple-spliced HIV-1 transcripts); experiment: RT-qPCR analysis of HIV-1 RNA splicing in MT-2 cells; format: cell-based; conditions: 24 and 48 hours post-infection, 100 μM; not statistically significant
Protocol: Given that splicing takes place in the nucleus, a blockage of the RRE-Rev system should reduce the levels of unspliced or single-spliced transcripts and increase the proportion of multiple-spliced species.
MT-2 cells were infected with a NL4.3 virus for 2 hours (10 ng/10^6 cells) and treated with two different concentrations of compounds 1a, 1d or 3c for 24, 48, 72 or 96 hours. The compound concentrations were chosen on the basis of the observed RRE-Rev IC50 and cellular EC50 values. Total cellular RNA was isolated, treated with DNase I and reverse-transcribed as previously described[21],[22]. Unspliced, single-spliced and multiple-spliced HIV-1 RNA transcripts were quantified by qPCR relative to a control obtained from untreated cells, using the primers described by Mohammadi et al.[48], and GAPDH as an endogenous control.

[4] = 10 mM sodium phosphate pH 6.6, 0.1 mM EDTA, two-site model, read-out: Kd (IIBh), first-site Kd1
[5] = 10 mM sodium phosphate pH 6.6, 0.1 mM EDTA, two-site model, read-out: Kd (IIBh), second-site Kd2 (in brackets)
[6] = 10-fold molar excess DNA duplex LTRd, 10 mM sodium phosphate pH 6.6, 0.1 mM EDTA, one-site fit, approximate, read-out: Kd (IIBh+LTRd)
[7] = 10-fold molar excess LTRd, 10 mM HEPES pH 7.5, 200 mM KCl, 2 mM MgCl2, read-out: Kd (IIBh+LTRd), one-site or first-site Kd1, Table S2
[8] = 10-fold molar excess tRNALys, 10 mM sodium phosphate pH 6.6, 0.1 mM EDTA, one-site fit, approximate, read-out: Kd (IIBh+tRNA)
[9] = higher ionic strength, 10 mM HEPES pH 7.5, 200 mM KCl, 2 mM MgCl2
[10] = higher ionic strength, 10 mM HEPES pH 7.5, 200 mM KCl, 2 mM MgCl2, read-out: Kd (IIBh), first-site Kd1, Table S2
[11] = higher ionic strength, 10 mM HEPES pH 7.5, 200 mM KCl, 2 mM MgCl2, read-out: Kd (IIBh), second-site Kd2 (in brackets), Table S2
[12] = 10-fold molar excess tRNALys, 10 mM HEPES pH 7.5, 200 mM KCl, 2 mM MgCl2, one-site fit, approximate, read-out: Kd (IIBh+tRNA), Table S2

Compound | Kd [1, 4] [µM] | Kd [1, 5] [µM] | Kd [1, 6] [µM] | Kd [1, 7] [µM] | Kd [1, 8] [µM] | IIB-DNA spec., Kd(IIBh)/Kd(IIBh+LTRd), Table S2 [1, 9] | Kd [1, 10] [µM] | Kd [1, 11] [µM] | IIB-DNA spec., Kd(IIBh)/Kd(IIBh+LTRd) [1] | IIB-tRNA spec., Kd(IIBh)/Kd(IIBh+tRNA) [1] | Kd (RRE subdomain IIB (IIBh)) [µM] | Kd (DNA duplex DNAd) [µM] | diminished levels of early viral DNA sequences [2] [%] | Kd ([1]; 10-fold molar excess LTRd, 10 mM HEPES pH 7.5, 200 mM KCl, 2 mM MgCl2, read-out: Kd (IIBh+LTRd), second-site Kd2 (in brackets), Table S2) [µM] | Kd [1, 12] [µM] | IIB-tRNA spec., Kd(IIBh)/Kd(IIBh+tRNA), Table S2 [1, 9] | pattern of unspliced, single-spliced and multiple-spliced viral transcripts [3]
COc1cc(CCN)c(-c2cc(C)c(-c3cc(CCN)c(OC)cc3CCN)cc2C)cc1CCN [Compound 1a] | 0.98 | 5.9 | 2.4 | 15 | 28 | 0.29 | 4.4 | 18 | 0.41 | 0.035 | 0.5 | 6.3 | 25 | – | – | – | –
Cc1cc(-c2cc(CCN)ccc2CCN)c(C)cc1-c1cc(CCN)ccc1CCN [Compound 1d] | 0.87 | 3.5 | 2.2 | 3.7 | 7.8 | 2.1 | 7.6 | 30 | 0.40 | 0.11 | – | – | – | 54 | 42 | 0.18 | clearest patterns consistent with RRE-Rev inhibition
Cc1cc(-c2cc(CCN)ccc2CCN)c(C)cc1-c1cccc(CCN)c1 [Compound 3c] | 6.5 | 26 | 8.1 | > 50 | 5.2 | – | > 50 | – | 0.80 | 1.3 | – | – | 25 | – | > 50 | – | –
